Laboratory results: ChEMBL document CHEMBL3885861, “Open TG-GATES”

Species: Rattus norvegicus
Test: Open TG-GATES - Regimen: Single
Type: toxicity, organism-based, Sprague-Dawley
Design: regimen Single, gender Male, age 6 weeks
Details: in vivo, po, 0 mg/kg, route gavage, dose level Control; for APTT / Bas / Eos / Fbg / Hb / Lym / MCH / MCHC / MCV / Mono / Neu / PT / Plat / RBC / Ret / WBC: tissue Blood; for KIDNEY_L / KIDNEY_R / KIDNEY_TOTAL: tissue Kidney; for LIVER: tissue Liver; for ALP / ALT / AST / BUN / CRE / Ca / Cl / DBIL / GLC / IP / K / LDH / Na / PL / RALB / TBIL / TC / TG / TP / gamma-GTP: tissue Plasma

## OCCN1CCN(CCCN2c3ccccc3Sc3ccc(C(F)(F)F)cc32)CC1 [FLUPHENAZINE]
3 h
  TERMINAL_BW: 199 g
  APTT: 16.1 s
  Bas: 0%
  Eos: 0.6%
  Fbg: 228.2 mg/dL
  Hb: 13.1 g/dL
  Lym: 80.4%
  MCH: 21.2 pg
  MCHC: 33%
  MCV: 64.3 fL
  Mono: 6.8%
  Neu: 12.2%
  PT: 12.5 s
  Plat: 106.1 x10_4/uL
  RBC: 617.6 x10_4/ul
  Ret: 7.6%
  WBC: 113.1 x10_2/uL
  KIDNEY_L: 0.9 g
  KIDNEY_R: 0.9 g
  KIDNEY_TOTAL: 1.9 g
  LIVER: 9.6 g
  ALP: 888.6 IU/L
  ALT: 34.8 IU/L
  AST: 63.4 IU/L
  BUN: 13 mg/dL
  CRE: 0.5 mg/dL
  Ca: 10.9 mg/dL
  Cl: 104.2 meq/L
  DBIL: 0.006 mg/dL
  GLC: 179 mg/dL
  IP: 10.3 mg/dL
  K: 5.1 meq/L
  LDH: 86.2 IU/L
  Na: 138 meq/L
  PL: 154.2 mg/dL
  RALB: 3.9 g/dL
  TBIL: 0.3 mg/dL
  TC: 85.8 mg/dL
  TG: 53.6 mg/dL
  TP: 5.5 g/dL
  gamma-GTP: 1.4 IU/L
6 h
  TERMINAL_BW: 196.6 g
  APTT: 16.4 s
  Bas: 0%
  Eos: 1%
  Fbg: 214.4 mg/dL
  Hb: 13 g/dL
  Lym: 75.8%
  MCH: 21.6 pg
  MCHC: 33.2%
  MCV: 65.1 fL
  Mono: 8.2%
  Neu: 15.4%
  PT: 12.8 s
  Plat: 108.7 x10_4/uL
  RBC: 601.2 x10_4/ul
  Ret: 8.4%
  WBC: 105.2 x10_2/uL
  KIDNEY_L: 0.9 g
  KIDNEY_R: 0.9 g
  KIDNEY_TOTAL: 1.8 g
  LIVER: 8.6 g
  ALP: 819.6 IU/L
  ALT: 33.6 IU/L
  AST: 67.4 IU/L
  BUN: 11.2 mg/dL
  CRE: 0.5 mg/dL
  Ca: 10.2 mg/dL
  Cl: 105.8 meq/L
  DBIL: 0.03 mg/dL
  GLC: 180.8 mg/dL
  IP: 10 mg/dL
  K: 4.7 meq/L
  LDH: 93 IU/L
  Na: 137 meq/L
  PL: 118.2 mg/dL
  RALB: 3.6 g/dL
  TBIL: 0.4 mg/dL
  TC: 65.8 mg/dL
  TG: 36.8 mg/dL
  TP: 5.3 g/dL
  gamma-GTP: 1.6 IU/L
9 h
  TERMINAL_BW: 197.8 g
  APTT: 16.6 s
  Bas: 0%
  Eos: 0.8%
  Fbg: 220.8 mg/dL
  Hb: 12.6 g/dL
  Lym: 77.6%
  MCH: 21.7 pg
  MCHC: 33.1%
  MCV: 65.6 fL
  Mono: 9%
  Neu: 13.2%
  PT: 12.5 s
  Plat: 111.9 x10_4/uL
  RBC: 581.6 x10_4/ul
  Ret: 8.6%
  WBC: 107.8 x10_2/uL
  KIDNEY_L: 0.9 g
  KIDNEY_R: 0.9 g
  KIDNEY_TOTAL: 1.9 g
  LIVER: 8.6 g
  ALP: 831.6 IU/L
  ALT: 29.2 IU/L
  AST: 58.8 IU/L
  BUN: 11.8 mg/dL
  CRE: 0.5 mg/dL
  Ca: 10.3 mg/dL
  Cl: 103.8 meq/L
  DBIL: 0.012 mg/dL
  GLC: 186.4 mg/dL
  IP: 10.2 mg/dL
  K: 4.6 meq/L
  LDH: 86.4 IU/L
  Na: 137.2 meq/L
  PL: 145 mg/dL
  RALB: 3.7 g/dL
  TBIL: 0.3 mg/dL
  TC: 84.6 mg/dL
  TG: 46.8 mg/dL
  TP: 5.4 g/dL
  gamma-GTP: 1.2 IU/L
24 h
  TERMINAL_BW: 211.2 g
  APTT: 16.8 s
  Bas: 0%
  Eos: 0.2%
  Fbg: 217.6 mg/dL
  Hb: 12.9 g/dL
  Lym: 80.8%
  MCH: 22.4 pg
  MCHC: 33.4%
  MCV: 67.1 fL
  Mono: 7.4%
  Neu: 11.4%
  PT: 12 s
  Plat: 113.4 x10_4/uL
  RBC: 574.6 x10_4/ul
  Ret: 8%
  WBC: 137.9 x10_2/uL
  KIDNEY_L: 0.9 g
  KIDNEY_R: 1 g
  KIDNEY_TOTAL: 1.9 g
  LIVER: 10.7 g
  ALP: 951.8 IU/L
  ALT: 38.6 IU/L
  AST: 69.6 IU/L
  BUN: 18.8 mg/dL
  CRE: 0.5 mg/dL
  Ca: 11.1 mg/dL
  Cl: 104.2 meq/L
  DBIL: 0.012 mg/dL
  GLC: 183.8 mg/dL
  IP: 8.8 mg/dL
  K: 4.9 meq/L
  LDH: 107.4 IU/L
  Na: 137.4 meq/L
  PL: 160.8 mg/dL
  RALB: 4 g/dL
  TBIL: 0.3 mg/dL
  TC: 80 mg/dL
  TG: 134.2 mg/dL
  TP: 5.8 g/dL
  gamma-GTP: 1.8 IU/L
